The results in this text go back to US8865894B2, “Oxazolidin-2-one compounds and uses thereof” (Novartis AG, priority 2012, dated 2014).

The target of one data set is T1, human PI3Kδ (Homo sapiens, UniProt O00329).
T1 construct: made in house
T1 sequence (O00329 2-1044 limits assumed): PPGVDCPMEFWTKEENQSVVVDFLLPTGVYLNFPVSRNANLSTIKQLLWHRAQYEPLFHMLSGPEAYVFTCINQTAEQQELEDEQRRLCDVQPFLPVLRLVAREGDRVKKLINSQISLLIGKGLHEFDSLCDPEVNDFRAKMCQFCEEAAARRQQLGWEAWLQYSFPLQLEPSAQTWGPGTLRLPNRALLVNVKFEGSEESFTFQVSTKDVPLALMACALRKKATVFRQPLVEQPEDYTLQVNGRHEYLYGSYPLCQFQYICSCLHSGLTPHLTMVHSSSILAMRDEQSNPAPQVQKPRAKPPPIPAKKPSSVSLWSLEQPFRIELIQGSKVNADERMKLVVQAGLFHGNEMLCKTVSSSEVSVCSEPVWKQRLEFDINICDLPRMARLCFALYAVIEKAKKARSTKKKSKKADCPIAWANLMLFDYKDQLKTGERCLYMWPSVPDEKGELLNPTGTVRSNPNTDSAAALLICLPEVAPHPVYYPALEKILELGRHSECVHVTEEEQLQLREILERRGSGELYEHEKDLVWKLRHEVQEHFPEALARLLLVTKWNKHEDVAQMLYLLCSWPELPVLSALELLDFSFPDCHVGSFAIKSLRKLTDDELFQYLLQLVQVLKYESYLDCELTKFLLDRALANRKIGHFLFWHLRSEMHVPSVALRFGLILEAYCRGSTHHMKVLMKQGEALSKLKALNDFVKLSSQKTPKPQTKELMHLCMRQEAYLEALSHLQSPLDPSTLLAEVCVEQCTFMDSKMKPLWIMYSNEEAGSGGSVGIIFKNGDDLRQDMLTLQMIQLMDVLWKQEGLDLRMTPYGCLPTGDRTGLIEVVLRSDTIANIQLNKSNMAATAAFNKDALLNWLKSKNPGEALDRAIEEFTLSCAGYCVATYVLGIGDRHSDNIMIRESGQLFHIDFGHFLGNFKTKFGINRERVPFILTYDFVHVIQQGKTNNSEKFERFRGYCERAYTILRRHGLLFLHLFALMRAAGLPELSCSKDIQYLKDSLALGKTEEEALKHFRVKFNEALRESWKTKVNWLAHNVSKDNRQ
Description: Biochemical PI3Kdelta (TR-FRET Adapta Universal Kinase Assay). The note with it: mean of n measurements, read-out: PIK3d/ IC50. As to the method: Test compounds were dissolved in DMSO (10 mM) and transferred into 1.4 mL flat bottom or V-shaped Matrix tubes carrying a unique 2D matrix chip by individual Novartis compound hubs. The numbers of these chips were distinctively linked to Novartis Pharma Numbers. The stock solutions were stored at −20° C. if not used immediately. For the test procedure the vials were defrosted and identified by a scanner whereby a working sheet was generated that guided the subsequent working steps.
Compounds were either manually diluted in DMSO for individual experiments (96 wells enabling 10 cpds at 8 (single points) concentrations) as described in or prepared as described below if tested for profiling in 384-wells. This format enabled the assay of maximally 40 individual test compounds at 8 concentrations (single points) including 4 reference compounds. The dilution protocol included the production of “pre-dilution plates”, “master plates” and “assay plates”.
96 polypropylene well plates were used as pre-dilution plates. A total of 4 pre-dilution plates were prepared including 10 test compounds each on the plate positions A1-A10, one standard compound at A11 and one DMSO control at A12. Programs have been written to run these pipetting steps on the HamiltonSTAR robots.
Identical “assay plates” were then prepared by pipetting 50 nL each of compound dilutions of the “master plates” into 384-well “assay plates”. The compounds were mixed with 4.5 μL of assays components plus 4.5 μL enzyme corresponding to a 1:181 dilution enabling the final concentration of 10, 3.0, 1.0, 0.3, 0.1, 0.03, 0.01 and 0.003 μM, respectively. The preparation of the “master plates” was handled by the Matrix PlateMate Plus robot and replication of “assay plates” by the HummingBird robot.
Catalytically active human PI3Kα, PI3Kβ, PI3Kδ, and mTOR were cloned, expressed and purified as described (Maira S M, Stauffer F, Brueggen J, Furet P, Schnell C, Fritsch C, Brachmann S, Chène P, de Pover A, Schoemaker K, Fabbro D, Gabriel D, Simonen M, Murphy L, Finan P, Sellers W, García-Echeverría C (2008), Mol Cancer Ther. 7:1851-63 and Maira S M, Pecchi S, Brueggen J, Huh K, Schnell C, Fritsch C, Nagel T, Wiesmann M, Brachmann S, Dorsch M, Chène P, Schoemaker K, De Pover A, Menezes D, Fabbro D, Sellers W, García-Echeverría C, Voliva C F (2011), Mol. Cancer Ther. accepted).
The TR-FRET Adapta™ Universal Kinase Assay Kit was purchased from Invitrogen Corporation (Carlsbad/CA, USA) (Cat. No. PV5099). The kit contains the following reagents: Adapta Eu-anti-ADP Antibody (Europium labeled anti-ADP antibody in HEPES buffered saline, Cat. No. PV5097), Alexa Fluor® 647-labeled ADP tracer (Alexa Fluor® 647-labeled ADP tracer in HEPES buffered saline, Cat. No. PV5098), proprietary TR-FRET dilution buffer pH 7.5 (Cat. No. PV3574).
PIK3CD substrate Phosphatidylinositol was obtained from Invitrogen (vesicules consisting of 2 mM PI in 50 mM HEPES pH7.5; Cat. No. PV5371). PIK3CG substrate Phosphatidylinositol-4,5-bisphosphate (PIP(4,5)2 was obtained from Invitrogen (PIP2:PS large unilamellar vesicules consisting of 1 mM PIP2: 19 mM PS in 50 mM HEPES pH7.5, 3 mM MgCl2, 1 mM EGTA; Cat. No. PV5100).
Time-Resolved Fluorescence Resonance Energy Transfer (TR-FRET) is a technology based on energy transfer between two adjacent dyes, from an excited electron in one dye (the donor) to an electron of an adjacent dye (the acceptor) through resonance, then released as a photon. This energy transfer is detected by an increase in the fluorescence emission of the acceptor, and a decrease in the fluorescence emission of the donor. TR-FRET assays for protein kinases use a long-lifetime lanthanide Terbium or Europium chelates as the donor species which overcome interference from compound autofluorescence or light scatter from precipitated compounds, by introducing a delay after excitation by a flashlamp excitation source. Results are often expressed as a ratio of the intensities of the acceptor and donor fluorophores.
Background: In TR-FRET formats the signal depends on donor and acceptor labels being close together.

Broadly, the melting point is the temperature, or range, at which the solid turns liquid. `C[C@H]1OC(=O)N(c2cc(-c3cnc(N)nc3C(F)(F)F)nc(N3CCOC[C@@H]3C)n2)[C@H]1CO` [Example 10, (4S,5R)-3-[2′-Amino-2-((S)-3-methyl-morpholin-4-yl)-4′-trifluoromethyl-[4,5′]bipyrimidinyl-6-yl]-4-hydroxymethyl-5-methyl-oxazolidin-2-one]: the melting point is 217.7 °C. For the same compound, the IC50 on human PI3Kδ is 12 nM.

For `Nc1ncc(-c2cc(N3CCOC3=O)nc(N3CCOCC3)n2)c(C(F)(F)F)n1` [Example 11, 3-(2′-Amino-2-morpholin-4-yl-4′-trifluoromethyl-[4,5′]bipyrimidinyl-6-yl)-oxazolidin-2-one, reference compound], at human PI3Kδ, the IC50 turned out to be 29 nM. On the same count and under the same terms, with `C[C@H]1OC(=O)N(c2cc(-c3cnc(N)nc3C(F)(F)F)nc(N3CCOCC3)n2)[C@H]1COC=O` [Example 12, Formic acid (4S,5R)-3-(2′-amino-2-morpholin-4-yl-4′-trifluoromethyl-[4,5′]bipyrimidinyl-6-yl)-5-methyl-2-oxo-oxazolidin-4-ylmethyl ester] the figure was 59 nM; with `C[C@H]1COCCN1c1nc(-c2cnc(N)nc2C(F)(F)F)cc(N2C(=O)OC[C@@H]2C)n1` [Example 13, (S)-3-[2′-Amino-2-((S)-3-methyl-morpholin-4-yl)-4′-trifluoromethyl-[4,5′]bipyrimidinyl-6-yl]-4-methyl-oxazolidin-2-one], 21 nM; with `Nc1ncc(-c2cc(N3C[C@@H](CO)OC3=O)nc(N3CCOCC3)n2)c(C(F)(F)F)n1` [Example 14, (S)-3-(2′-Amino-2-morpholin-4-yl-4′-trifluoromethyl-[4,5′]bipyrimidinyl-6-yl)-5-hydroxymethyl-oxazolidin-2-one], 17 nM. Still for that read-out and setting: the same measure for `C[C@H]1[C@H](CO)OC(=O)N1c1cc(-c2cnc(N)nc2C(F)(F)F)nc(N2CCOCC2)n1` [Example 15, (4S,5R)-3-(2′-Amino-2-morpholin-4-yl-4′-trifluoromethyl-[4,5′]bipyrimidinyl-6-yl)-5-hydroxymethyl-4-methyl-oxazolidin-2-one]: 15 nM; for `C[C@H]1CN(c2cc(-c3cnc(N)nc3C(F)(F)F)nc(N3CCOCC3)n2)C(=O)O1` [Example 16, (S)-3-(2′-Amino-2-morpholin-4-yl-4′-trifluoromethyl-[4,5′]bipyrimidinyl-6-yl)-5-methyl-oxazolidin-2-one]: 21 nM. The same measure, in the same setting: the same measure for `[2H]C1([2H])OC([2H])([2H])C([2H])([2H])N(c2nc(-c3cnc(N)nc3C(F)(F)F)cc(N3C(=O)OC[C@@H]3C)n2)C1([2H])[2H]` [Example 17, (S)-3-(2′-amino-2-D8-morpholino-4′-(trifluoromethyl)-[4,5′-bipyrimidin]-6-yl)-4-methyloxazolidin-2-one]: 8 nM. For `C[C@H]1OC(=O)N(c2cc(-c3cnc(N)nc3C(F)(F)F)nc(N3CCOCC3)n2)[C@H]1CO` [Example 18, (4S,5R)-3-(2′-Amino-2-morpholin-4-yl-4′-trifluoromethyl-[4,5′]bipyrimidinyl-6-yl)-4-hydroxymethyl-5-methyl-oxazolidin-2-one], the IC50 on human PI3Kδ was 8 nM. Same read-out and setting: with `C[C@H]1[C@@H](CO)OC(=O)N1c1cc(-c2cnc(N)nc2C(F)(F)F)nc(N2CCOCC2)n1` [Example 19, (4S,5S)-3-(2′-Amino-2-morpholin-4-yl-4′-trifluoromethyl-[4,5′]bipyrimidinyl-6-yl)-5-hydroxymethyl-4-methyl-oxazolidin-2-one] the figure was 9 nM. The same measure, in the same setting: with `Nc1ncc(-c2cc(N3C[C@H](CO)OC3=O)nc(N3CCOCC3)n2)c(C(F)(F)F)n1` [Example 20, (R)-3-(2′-Amino-2-morpholin-4-yl-4′-trifluoromethyl-[4,5′]bipyrimidinyl-6-yl)-5-hydroxymethyl-oxazolidin-2-one] the figure was 23 nM; with `Nc1ncc(-c2cc(N3C(=O)O[C@H]4COC[C@H]43)nc(N3CCOCC3)n2)c(C(F)(F)F)n1` [Example 21, (3aR,6aR)-3-(2′-amino-2-morpholino-4′-(trifluoromethyl)-[4,5′-bipyrimidin]-6-yl)-tetrahydrofuro[3,4-d]oxazol-2(3H)-one], 17 nM; with `C[C@H]1[C@@H](CCO)OC(=O)N1c1cc(-c2cnc(N)nc2C(F)(F)F)nc(N2CCOCC2)n1` [Example 23, (4S,5R)-3-(2′-Amino-2-morpholino-4′-(trifluoromethyl)-[4,5′-bipyrimidin]-6-yl)-5-(2-hydroxyethyl)-4-methyloxazolidin-2-one], 9 nM.
